Data from ChEMBL document CHEMBL1201862, “PubChem BioAssay data set” (2004).
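Method: 48-hour compound exposure of cells in 96-well plates, five concentrations, linear interpolation of endpoints. GI50 is the concentration that inhibits growth by half.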 The source made the active and inactive calls. No stated cut-off is given here; in the data, active = GI50 up to about 1.1 µM and inactive = higher.

Tests used:
Experiment in all cases: NCI-60 cell line screen, 48 h
OVCAR-4 = system: OVCAR-4
OVCAR-8 = system: OVCAR-8
IGROV-1 = system: IGROV-1
HT-29 = system: HT-29
EKVX = system: EKVX
SR = system: SR
Malme-3M = system: Malme-3M
SK-OV-3 = system: SK-OV-3
K562 = system: K562
MDA-N = system: MDA-N
T47D = system: T47D
HCT-116 = system: HCT-116
UO-31 = system: UO-31
TK-10 = system: TK-10
A549 = system: A549
A498 = system: A498
U-251 = system: U-251
786-0 = system: 786-0
SK-MEL-2 = system: SK-MEL-2
HCC 2998 = system: HCC 2998

Compound	GI50 (OVCAR-4)	GI50 (OVCAR-8)	GI50 (IGROV-1)	GI50 (HT-29)	GI50 (EKVX)	GI50 (SR)	GI50 (Malme-3M)	GI50 (SK-OV-3)	GI50 (K562)	GI50 (MDA-N)	GI50 (T47D)	GI50 (HCT-116)	GI50 (UO-31)	GI50 (TK-10)	GI50 (A549)	GI50 (A498)	GI50 (U-251)	GI50 (786-0)	GI50 (SK-MEL-2)	GI50 (HCC 2998)
C[N+]1(C)C2CC(OC(=O)C(CO)c3ccccc3)CC1C1OC12 (stereo not given)	> 100 µM (inactive)	> 100 µM (inactive)	> 100 µM (inactive)	> 100 µM (inactive)	> 100 µM (inactive)	> 100 µM (inactive)	> 100 µM (inactive)	> 100 µM (inactive)	> 100 µM (inactive)	> 100 µM (inactive)	> 100 µM (inactive)	> 100 µM (inactive)	> 100 µM (inactive)	> 100 µM (inactive)	> 100 µM (inactive)	> 100 µM (inactive)	> 100 µM (inactive)	> 100 µM (inactive)	> 100 µM (inactive)	
Oc1ccc(CCNCc2cc3c(cc2Br)OCO3)cc1		> 100 µM (inactive)	> 100 µM (inactive)	52.8 µM (inactive)	> 100 µM (inactive)	32.4 µM (inactive)	62.8 µM (inactive)	51.8 µM (inactive)	34.8 µM (inactive)	68.2 µM (inactive)	41.4 µM (inactive)	61.7 µM (inactive)	55.7 µM (inactive)	75.9 µM (inactive)	> 100 µM (inactive)	50 µM (inactive)	77.8 µM (inactive)	71 µM (inactive)	21.7 µM (inactive)	
C(=N\N=C1NCCCN1)/c1ccc2ccccc2c1	19.3 µM (inactive)	14.7 µM (inactive)	11.7 µM (inactive)	8.39 µM (inactive)	14.1 µM (inactive)		18.2 µM (inactive)	11.2 µM (inactive)	3.48 µM (inactive)	8.97 µM (inactive)	10.4 µM (inactive)	10.4 µM (inactive)	11.6 µM (inactive)	18.6 µM (inactive)	9.23 µM (inactive)	3.01 µM (inactive)	6.53 µM (inactive)	11.7 µM (inactive)	13.7 µM (inactive)	2.64 µM (inactive)
O=C(O)CCC(C(=O)O)N1C(=O)C2C3CCC(C3)C2C1=O (stereo not given)	> 100 µM (inactive)	> 100 µM (inactive)	> 100 µM (inactive)	> 100 µM (inactive)	> 100 µM (inactive)	> 100 µM (inactive)	> 100 µM (inactive)	> 100 µM (inactive)	> 100 µM (inactive)	> 100 µM (inactive)	> 100 µM (inactive)	> 100 µM (inactive)		> 100 µM (inactive)	> 100 µM (inactive)	> 100 µM (inactive)	> 100 µM (inactive)	> 100 µM (inactive)	> 100 µM (inactive)	
C1=N\CCNCC/N=C\c2ccc(cc2)OCc2cccc(n2)COc2ccc/1cc2	97.3 µM (inactive)	39.5 µM (inactive)	66.7 µM (inactive)	> 100 µM (inactive)	> 100 µM (inactive)	> 100 µM (inactive)	90.8 µM (inactive)	36.3 µM (inactive)	> 100 µM (inactive)	> 100 µM (inactive)	> 100 µM (inactive)	> 100 µM (inactive)	> 100 µM (inactive)		> 100 µM (inactive)	> 100 µM (inactive)	32 µM (inactive)	40.2 µM (inactive)	70.3 µM (inactive)	
O=C(/C=C1\Nc2ccccc2N=C1NC12CC3CC(CC(C3)C1)C2)c1ccc(Br)cc1	> 10 µM (inactive)	> 10 µM (inactive)	> 10 µM (inactive)	> 10 µM (inactive)	> 10 µM (inactive)		> 10 µM (inactive)	> 10 µM (inactive)	> 10 µM (inactive)	> 10 µM (inactive)	> 10 µM (inactive)	> 10 µM (inactive)	> 10 µM (inactive)	> 10 µM (inactive)	> 10 µM (inactive)	> 10 µM (inactive)	> 10 µM (inactive)	> 10 µM (inactive)	> 10 µM (inactive)	> 10 µM (inactive)
Nc1cc(N2CCOCC2)nc(=O)n1-c1ccc(Cl)cc1		> 100 µM (inactive)	> 100 µM (inactive)	> 100 µM (inactive)	> 100 µM (inactive)	> 100 µM (inactive)		> 100 µM (inactive)	> 100 µM (inactive)	> 100 µM (inactive)	> 100 µM (inactive)	> 100 µM (inactive)	> 100 µM (inactive)		> 100 µM (inactive)	> 100 µM (inactive)	> 100 µM (inactive)	> 100 µM (inactive)	> 100 µM (inactive)	> 100 µM (inactive)
COc1ccc(Cn2c(=O)c(OS(=O)(=O)C(F)(F)F)c(C)c3cc4ccccc4cc32)cc1	88.7 µM (inactive)	> 100 µM (inactive)	> 100 µM (inactive)	> 100 µM (inactive)	> 100 µM (inactive)	> 100 µM (inactive)	86.1 µM (inactive)	> 100 µM (inactive)	> 100 µM (inactive)	> 100 µM (inactive)	> 100 µM (inactive)	> 100 µM (inactive)	> 100 µM (inactive)	> 100 µM (inactive)	> 100 µM (inactive)		> 100 µM (inactive)	> 100 µM (inactive)	> 100 µM (inactive)	> 100 µM (inactive)
CC(C)c1nc(Cl)c(Cl)c(Cl)n1	15.5 µM (inactive)	2.1 µM (inactive)	3.08 µM (inactive)	2.1 µM (inactive)	11.7 µM (inactive)	0.431 µM (active)	0.608 µM (active)	17.7 µM (inactive)	0.286 µM (active)	4.35 µM (inactive)	4.14 µM (inactive)	1.33 µM (inactive)	1.19 µM (inactive)	11.4 µM (inactive)	2.58 µM (inactive)	23.8 µM (inactive)	3.42 µM (inactive)	2.99 µM (inactive)		3.49 µM (inactive)
CC12CP(=O)(c3ccccc3)CC1c1ccccc1C2c1ccccc1 (stereo not given)		15.2 µM (inactive)	3.44 µM (inactive)	15.5 µM (inactive)	17.9 µM (inactive)	14.3 µM (inactive)	15.6 µM (inactive)	40.1 µM (inactive)	5.9 µM (inactive)	16.6 µM (inactive)	16.4 µM (inactive)	14.3 µM (inactive)	16.7 µM (inactive)	62.2 µM (inactive)	16.4 µM (inactive)	27.7 µM (inactive)	16.5 µM (inactive)	17.3 µM (inactive)	28 µM (inactive)	17.7 µM (inactive)
COC(=O)C(=O)C(C(=O)C(=O)Nc1ccc([N+](=O)[O-])cc1[N+](=O)[O-])c1nc2ccc(Cl)cc2nc1O (stereo not given)	27.1 µM (inactive)	> 100 µM (inactive)		> 100 µM (inactive)		> 100 µM (inactive)		> 100 µM (inactive)	> 100 µM (inactive)	> 100 µM (inactive)	> 100 µM (inactive)	> 100 µM (inactive)	80.4 µM (inactive)		> 100 µM (inactive)	> 100 µM (inactive)	> 100 µM (inactive)	> 100 µM (inactive)	> 100 µM (inactive)	> 100 µM (inactive)
O=c1c(Cl)nsnc1Cl	5.15 µM (inactive)	36.1 µM (inactive)	16.4 µM (inactive)	24.2 µM (inactive)	25.6 µM (inactive)	1.95 µM (inactive)	6.38 µM (inactive)	19.1 µM (inactive)	1.73 µM (inactive)	18.7 µM (inactive)	3.08 µM (inactive)	7.01 µM (inactive)	6.4 µM (inactive)	2.57 µM (inactive)	26.3 µM (inactive)		15.1 µM (inactive)	1.7 µM (inactive)	36.4 µM (inactive)	19.4 µM (inactive)
CC(=O)OCC1OC(n2c(C)c(/N=N/c3ccccc3)c(C)c(C#N)c2=S)C(OC(C)=O)C(OC(C)=O)C1OC(C)=O (stereo not given)	48.9 µM (inactive)		99.1 µM (inactive)	> 100 µM (inactive)		> 100 µM (inactive)	46.3 µM (inactive)	22.6 µM (inactive)	> 100 µM (inactive)	> 100 µM (inactive)	> 100 µM (inactive)	16.9 µM (inactive)	> 100 µM (inactive)	29 µM (inactive)	57.3 µM (inactive)		> 10 µM (inactive)	7.38 µM (inactive)	24.9 µM (inactive)	> 100 µM (inactive)
CCCc1c(O)c(=O)c2c(OC)cc(OC)c3c4c(OC)cc(OC)c5c(=O)c(O)c(CCC)c(c1c23)c54	2.56 µM (inactive)	0.513 µM (active)	0.337 µM (active)	0.729 µM (active)	1.06 µM (active)	0.141 µM (active)		0.342 µM (active)	0.195 µM (active)	0.425 µM (active)	1.33 µM (inactive)	0.299 µM (active)	0.404 µM (active)	1.9 µM (inactive)	0.386 µM (active)	0.678 µM (active)	0.415 µM (active)	0.676 µM (active)	0.507 µM (active)	1.76 µM (inactive)
COC1C(O)=C2C(=O)O/C(C)=C/C=C/C=C/C=C\CC(c3ccccc3)NC(=O)\C=C/C=C\C=C\C=C\[C@@]2(C)[C@@H]1O (stereo not given in full)	0.0444 µM (active)	0.0157 µM (active)	< 0.0211 µM (active)	< 0.01 µM (active)	0.0357 µM (active)	< 0.0125 µM (active)	< 0.0223 µM (active)	< 0.021 µM (active)	< 0.01 µM (active)	0.033 µM (active)	0.0239 µM (active)	< 0.01 µM (active)	< 0.0161 µM (active)	< 0.0361 µM (active)	< 0.01 µM (active)	0.0129 µM (active)	< 0.01 µM (active)	0.017 µM (active)	< 0.0218 µM (active)	
